Test results: US11376302B2, “Methods for treating depression and major depressive disorder” (priority 2017, dated 2022)
“Also recorded” adds a separate entry of the source.

Experiments:
[1] = cited from earlier work
mice [2] = experiment: Novelty suppressed feeding (NSF) test; format: in vivo, mouse; conditions: C57BL/6 mice, ketamine injection
Protocol: Novelty Suppressed Feeding (NSF)
After receiving the treatments mice were subjected to NSF. Briefly, mice were food deprived for 14 h and then placed in a temporary home cage for 30 min. During the test, mice were placed in a square arena 50×50 cm with bright room light. A food pellet was placed in the center of an open field. Each trial was 10 min in duration. Animal behavior was recorded, and latency to feeding (s) was measured.

mice [3] = experiment: Forced swim test (FST); format: in vivo, mouse
Protocol: After receiving treatments mice were subjected to FST. Briefly, mice were introduced into a transparent glass beaker (26 cm×18 cm) containing 4 liters deep water at 24° C. and were video-recorded for 6 minutes. The last 4 min were scored for immobility. Total immobility time (in seconds) is shown in the results.

mice [4] = experiment: Tail suspension test (TST); format: in vivo, mouse; conditions: C57BL/6 mice, Tatcont then ketamine, test 24 hours later
Protocol: Custom made clear hollow cylinders (4 cm length, 1.2 cm inner diameter, 1 g) from polycarbonate tubing were placed around the tails of mice to prevent tail climbing behavior. Tape was adhered to the tails of mice on one end, and the other end of the tape was adhered to a custom designed chamber with a white background. Mice were video recorded for 6 minute and the entire 6 minute session was scored for immobility. Total immobility time (seconds) is shown in the results.

[5] = system: global protein synthesis in the hippocampus; experiment: SUnSET measurement of global protein synthesis in brain tissue after injection; format: in vivo, mouse
Protocol: Protein synthesis was measured by the SUnSET method. After pharmacological manipulation, mice were sacrificed by cervical dislocation, brains were removed, and the hippocampi were rapidly dissected, immersed in liquid nitrogen, and stored at −80° C. until further use. Hippocampi were homogenized using 20 strokes of a pre-chilled glass homogenizer with 600 μl of lysis buffer containing 50 mM Tris, pH 7.8, 240 mM KCl, 10 mM MgCl2, 250 mM D-sucrose, 2% Triton X-100, 20 μg/ml emetine, 5 mM DTT, 100 U/ml Rnasin (Promega), and protease inhibitor mixture without EDTA (Roche). Samples were centrifuged for 5 min at 16,100 g at 4° C. and supernatant was incubated with 100 g/ml puromycin for 10 min at 4° C. An equal volume of 2×SDS sample buffer (10% glycerol, 5% β-mercaptoethanol, 4% SDS, 120 mM Tris-HCl, pH 6.8) was added to the samples and then boiled for 10 min at 100° C. Protein concentrations were determined using the BCA protein assay (Thermo), and samples were stored at −20° C. until further use. Puromycin incorporation was detected by western blotting using 12D10 antibody for puromycin (1:1000, Millipore).

Row | SMILES | persistence of antidepressant effect ([1]; human patients, single intravenous administration) | reduction of depression in human patients ([1]; single intravenous administration) | side effects of infusions in humans ([1]; single or repeated infusions, lasting a few minutes to hours) | latency to feeding in the novelty suppressed feeding test (mice [2]) | immobility time in the FST (mice [3]; C57BL/6 mice, Tatcont then ketamine, test 24 hours later) | immobility time in the forced swim test (mice [3]; C57BL/6 mice, ketamine IP (5 mg per kg b.w. in Example 1), short-term test) | immobility time in the FST (mice [3]; WT littermates, 30 minutes after ketamine) | immobility time in FST (mice [3]; WT mice, 24 hours after ketamine injection) | immobility time in the FST (mice [3]; eEF2K-KO mice, 30 minutes after ketamine) | immobility time in FST (mice [3]; eEF2K-KO mice, 24 hours after injection) | immobility time in FST (mice [3]; ketamine 5 mg/kg b.w., FST 24 hours later, C57BL/6 mice) | immobility time in FST (mice [3]; ketamine 10 mg/kg b.w., FST 24 hours later, C57BL/6 mice) | immobility time in the TST (mice [4]) | protein synthesis ([5]; anisomycin 120 mg/kg b.w.) | ketamine-induced protein synthesis ([5]; anisomycin 120 mg/kg b.w. with ketamine)
1 | CNC1(c2ccccc2Cl)CCCCC1=O (stereo not drawn) [ketamine] | persists for many hours to days | sufficient to reduce depression | acute dissociative and psychotomimetic effects | reduced the latency to feeding | shorter immobility time | reduced the immobility time; also recorded: shorter immobility time | reduced the immobility time | reduced immobility time | no difference in immobility | no difference | shorter immobility time | shorter immobility time | shorter immobility time | – | –
2 | COc1ccc(C[C@H]2NC[C@H](O)[C@H]2OC(C)=O)cc1 [anisomycin] | – | – | – | – | – | – | – | – | – | – | – | – | – | blocked protein synthesis | blocked
